From ChEMBL document CHEMBL3039007, “Structure-based identification of OATP1B1/3 inhibitors” (Mol Pharmacol, 2013)
“And” between values parts separate entries of the source, which are not always exact repeats. Equal entries are not always repeated.

Tests used:
[1] = molecular target: T1, Solute carrier organic anion transporter family member 1B3 (Homo sapiens, UniProt Q9NPD5); details: chinese hamster, cho, 10 µM
T1 sequence (Q9NPD5 whole entry): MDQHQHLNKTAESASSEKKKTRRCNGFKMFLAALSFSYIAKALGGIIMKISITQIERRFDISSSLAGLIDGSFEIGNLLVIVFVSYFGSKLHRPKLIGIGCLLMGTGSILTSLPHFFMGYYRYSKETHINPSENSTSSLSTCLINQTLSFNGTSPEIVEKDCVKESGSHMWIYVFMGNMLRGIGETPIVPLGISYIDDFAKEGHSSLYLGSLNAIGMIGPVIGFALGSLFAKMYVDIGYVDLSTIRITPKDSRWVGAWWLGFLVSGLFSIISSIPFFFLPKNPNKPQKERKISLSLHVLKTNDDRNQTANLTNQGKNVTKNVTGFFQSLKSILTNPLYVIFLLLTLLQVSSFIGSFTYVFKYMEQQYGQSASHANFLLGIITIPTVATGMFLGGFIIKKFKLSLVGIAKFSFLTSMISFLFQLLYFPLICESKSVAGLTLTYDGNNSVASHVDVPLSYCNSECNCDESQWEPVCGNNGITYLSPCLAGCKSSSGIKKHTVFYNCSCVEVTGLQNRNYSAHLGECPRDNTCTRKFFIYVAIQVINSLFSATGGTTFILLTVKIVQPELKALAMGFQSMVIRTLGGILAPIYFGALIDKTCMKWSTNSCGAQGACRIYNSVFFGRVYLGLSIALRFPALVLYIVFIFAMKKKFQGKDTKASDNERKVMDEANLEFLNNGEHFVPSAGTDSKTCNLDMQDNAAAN

[2] = molecular target: T2, Solute carrier organic anion transporter family member 1B1 (Homo sapiens, UniProt Q9Y6L6)
T2 sequence (Q9Y6L6 whole entry): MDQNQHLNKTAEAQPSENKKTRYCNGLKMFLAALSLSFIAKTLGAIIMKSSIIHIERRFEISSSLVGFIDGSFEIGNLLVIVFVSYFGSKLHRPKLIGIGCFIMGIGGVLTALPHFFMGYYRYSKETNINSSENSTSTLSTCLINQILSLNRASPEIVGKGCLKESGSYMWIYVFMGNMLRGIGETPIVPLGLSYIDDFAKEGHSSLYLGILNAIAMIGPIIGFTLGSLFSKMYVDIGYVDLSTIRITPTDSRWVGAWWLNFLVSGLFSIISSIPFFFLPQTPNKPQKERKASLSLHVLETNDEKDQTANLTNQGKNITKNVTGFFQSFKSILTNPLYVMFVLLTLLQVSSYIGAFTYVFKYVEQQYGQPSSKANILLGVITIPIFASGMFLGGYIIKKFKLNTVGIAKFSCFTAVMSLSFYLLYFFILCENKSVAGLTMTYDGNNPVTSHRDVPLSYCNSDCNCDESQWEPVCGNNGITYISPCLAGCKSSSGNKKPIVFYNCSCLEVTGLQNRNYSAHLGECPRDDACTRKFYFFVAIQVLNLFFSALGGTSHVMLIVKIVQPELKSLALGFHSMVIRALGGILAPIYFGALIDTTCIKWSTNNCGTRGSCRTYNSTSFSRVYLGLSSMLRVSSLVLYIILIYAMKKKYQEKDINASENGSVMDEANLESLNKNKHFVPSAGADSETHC

[3] = molecular target: T1, Solute carrier organic anion transporter family member 1B3
[4] = molecular target: T2, Solute carrier organic anion transporter family member 1B1; details: chinese hamster, cho, 10 µM
[5] = molecular target: T2, Solute carrier organic anion transporter family member 1B1; remark: listed apart in the source
[6] = molecular target: T1, Solute carrier organic anion transporter family member 1B3; remark: listed apart in the source

Work on `C=C1[C@@H]2CC[C@@]3(C)[C@H](c4ccoc4)OC(=O)C[C@]13O[C@H]1C[C@H](O)C(C)(C)[C@H](CC(=O)OC)[C@]12C` yielded a residual activity [1] of 17.5%, a Ki [2] of 680 nM and a Ki [3] of 3060 nM. For the same compound, the residual activity [4] was 16%.

With `CC(=O)O[C@@H]1C[C@H]2C(C)(C)[C@@H](O)CC[C@]2(C)[C@H]2CC[C@]3(C)C(=CC(=O)O[C@H]3c3ccoc3)[C@@]21C` the residual activity [1] was 25.89%, the Ki [2] was 930 nM and 1490 nM and the Ki [3] was 2500 nM and 2390 nM. For the same compound, the residual activity [4] was 31.46%.

Work on `CC1(C)C(=O)[C@@H]2O[C@@H]2[C@]2(C)[C@H]3CC[C@@]4(C)[C@H](c5ccoc5)OC(=O)[C@H]5O[C@]54[C@]3(C)[C@H](O)C[C@@H]12` yielded a residual activity [1] of 21.3%, an IC50 [5] of 1.58 µM and a residual activity [4] of 12.73%. It also gave an IC50 [6] of 2.95 µM.

`CC(=O)O[C@@H]1CC2C(C)(C)[C@H](O)C[C@H](O)[C@@]2(C)C2CC[C@]3(C)C(=CC(=O)O[C@@H]3c3ccoc3)[C@]21C` (stereo not given in full) [1,3-DIDEACETYLDEOXYKHIVORIN] showed a residual activity [1] of 50.83%, a Ki [2] of 2960 nM and a Ki [3] of 6590 nM. For the same compound, the residual activity [4] was 31.1%.

`CC(=O)O[C@H]1CC[C@]2(C)C(C[C@@H](OC(C)=O)[C@]3(C)C4=CC(=O)O[C@H](c5ccoc5)[C@@]4(C)CCC23)C1(C)C` (stereo partly drawn) [3-DEOXO-3beta-ACETOXYDEOXYDIHYDROGEDUNIN] gave a residual activity [1] of 20.65%, a Ki [2] of 410 nM and a Ki [3] of 2670 nM. The residual activity [4] was 14.97%.

With `CC(=O)O[C@H]1CC[C@]2(C)[C@H]3C(=O)C=C4[C@@H]5[C@@H](C)[C@H](C)CC[C@]5(C(=O)O)CC[C@@]4(C)[C@]3(C)CC[C@H]2C1(C)C` [11-OXOURSOLIC ACID ACETATE] the residual activity [1] was 5.189%, the IC50 [5] was 11.2 µM and the residual activity [4] was 19.79%. The IC50 [6] was 11.5 µM.

`CCCCCC[C@H]1C(=O)O[C@H](C)[C@H](NC(=O)c2cccc(NC=O)c2O)C(=O)O[C@@H](C)[C@@H]1OC(=O)CC(C)C` [ANTIMYCIN A] showed a residual activity [1] of 28.62%, a Ki [2] of 2200 nM and a Ki [3] of 3820 nM. It also gave a residual activity [4] of 31.93%.

Compound `CC[C@H]1OC(=O)[C@H](C)[C@@H](O[C@H]2C[C@@](C)(OC)[C@@H](O)[C@H](C)O2)[C@H](C)[C@@H](O[C@@H]2O[C@H](C)C[C@H](N(C)C)[C@H]2O)[C@](C)(OC)C[C@@H](C)C(=O)[C@H](C)[C@@H](O)[C@]1(C)O` [CLARITHROMYCIN] has a residual activity [1] of 80.47%, an IC50 [5] of 3.09 µM and a residual activity [4] of 56.72%. The IC50 [6] was 3.31 µM.

`N[C@@H](C(=O)O)[C@@H](O)[C@H](O)[C@H](O)CO` [GLUCOSAMINIC ACID] was tested, and the residual activity [1] was 25.61%, the IC50 [5] was 11.7 µM and the residual activity [4] was 63.53%.

`CCCCCN(CCCCC)C(=O)C(CCC(=O)[O-])NC(=O)c1ccc(Cl)c(Cl)c1.[Na+]` (stereo not given) [LORGLUMIDE SODIUM] showed a residual activity [1] of 32.85%, a Ki [2] of 2010 nM and a Ki [3] of 2710 nM. It also gave a residual activity [4] of 16.54%.

`CC[C@H]1/C=C/C=C/C[C@@H](C)[C@H](O)[C@@](C)(O)C(=O)[C@@H](C)[C@H](O)[C@@H](C)C(=O)[C@@H](C)[C@H](O)[C@@H](C)/C=C/C(=O)O[C@@H]2[C@H](C)[C@H](CC1)O[C@]1(CC[C@H](C)[C@H](C[C@@H](C)O)O1)[C@H]2C` [OLIGOMYCIN] gave a residual activity [1] of 3.002%, a Ki [2] of 250 nM and a Ki [3] of 440 nM. It also gave a residual activity [4] of 11.28%.

Compound `CC[C@@H](C(=O)[C@@H](C)[C@@H](O)[C@H](C)[C@@H]1O[C@@H]([C@@H](CC)C(=O)[O-])CC[C@@H]1C)[C@H]1O[C@]2(C=C[C@@H](O)[C@]3(CC[C@@](C)([C@H]4CC[C@](O)(CC)[C@H](C)O4)O3)O2)[C@H](C)C[C@@H]1C.[Na+]` [SALINOMYCIN SODIUM] has a residual activity [1] of 16.99%, a Ki [2] of 2030 nM and a Ki [3] of 3310 nM. It also gave a residual activity [4] of 21.72%.

`Nc1nc(=O)c2[nH]c(=O)cnc2[nH]1` [XANTHOPTERIN] showed a residual activity [1] of 104.7% and a residual activity [4] of 104.4%.

With `COc1cc(O)c(C(C)=O)c(OC)c1` [XANTHOXYLIN] the residual activity [1] was 104.3% and the residual activity [4] was 128.7%.

Work on `O=C(O)c1cc(O)c2cccc(O)c2n1` [XANTHURENATE] yielded a residual activity [1] of 99.4% and a residual activity [4] of 115.8%.

With `CC1(C)C=Cc2cc3ccc(=O)oc3cc2O1` [XANTHYLETIN] the residual activity [1] was 85.95% and the residual activity [4] was 75.53%.

Compound `Cc1cccc(C)c1N=C1NCCCS1` [XYLAZINE] has a residual activity [1] of 83.59% and a residual activity [4] of 64.31%.

`COC(=O)CC1C(C)(C)C(OC(C)=O)[C@@H]2[C@@H](OC(C)=O)[C@]34O[C@@]2(O)[C@]1(C)C3CC[C@]1(C)C4=CC(=O)O[C@H]1c1ccoc1` (stereo not given in full) [XYLOCARPUS A] gave a residual activity [1] of 9.764% and a residual activity [4] of 22.54%.

Compound `Cc1cc(C(C)(C)C)cc(C)c1CC1=NCCN1.Cl` [XYLOMETAZOLINE HYDROCHLORIDE] has a residual activity [1] of 99.17% and a residual activity [4] of 86.29%.

Compound `CCCOc1ccccc1-c1nc2nn[nH]c2c(=O)[nH]1` [ZAPRINAST] has a residual activity [1] of 86.99% and a residual activity [4] of 98.85%.

`C[C@H]1CCCC(=O)CCC/C=C/c2cc(O)cc(O)c2C(=O)O1` [ZEARALENONE] was tested, and the residual activity [1] was 91.51% and the residual activity [4] was 55.9%.

`Cc1cn([C@H]2C[C@H](N=[N+]=[N-])[C@@H](CO)O2)c(=O)[nH]c1=O` [ZIDOVUDINE] gave a residual activity [1] of 95.75% and a residual activity [4] of 134%.

Compound `CN(C)CCc1c[nH]c2ccc(C[C@H]3COC(=O)N3)cc12` [ZOLMITRIPTAN] has a residual activity [1] of 102.5% and a residual activity [4] of 95.98%.

In the case of `Cc1ccc(-c2nc3ccc(C)cn3c2CC(=O)N(C)C)cc1` [ZOLPIDEM], the residual activity [1] is reported as 78.05% and the residual activity [4] is reported as 177.4%.

Compound `Cc1cc(CC(=O)[O-])n(C)c1C(=O)c1ccc(Cl)cc1.O.O.[Na+]` [ZOMEPIRAC SODIUM] has a residual activity [1] of 118.7% and a residual activity [4] of 132.9%.

`N#C/C(=C\c1cccc(O)c1)C(=O)O` [alpha-CYANO-3-HYDROXYCINNAMIC ACID] gave a residual activity [1] of 89.69% and a residual activity [4] of 102.6%.

`N#C/C(=C\c1ccc(O)cc1)C(=O)O` [alpha-CYANO-4-HYDROXYCINNAMIC ACID] was tested, and the residual activity [1] was 105.3% and the residual activity [4] was 112.8%.

`Cc1c(C)c2c(c(C)c1O)CCC(C)(CCCC(C)CCCC(C)CCCC(C)C)O2` (stereo not drawn) [alpha-TOCHOPHEROL] showed a residual activity [1] of 84.17% and a residual activity [4] of 85.48%.

`CC(=O)O[C@H]1CC[C@]2(C)[C@H]3CC=C4[C@@H]5CC(C)(C)CC[C@]5(C)CC[C@@]4(C)[C@]3(C)CC[C@H]2C1(C)C` [beta-AMYRIN ACETATE] gave a residual activity [1] of 110% and a residual activity [4] of 113%.

With `CC1(C)CC[C@]2(C)CC[C@]3(C)C(=CC[C@@H]4[C@@]5(C)CC[C@H](O)C(C)(C)[C@@H]5CC[C@]43C)[C@@H]2C1` [beta-AMYRIN] the residual activity [1] was 75.14% and the residual activity [4] was 65.86%.

`CC12CCCC(O)(C1)C1CC(C)(C)C1CC2` (stereo not drawn) [beta-CARYOPHYLLENE ALCOHOL] showed a residual activity [1] of 113% and a residual activity [4] of 117.4%.

Compound `COc1cc2c(cc1OC)C1C(=O)c3c(cc4c(c3O)C=CC(C)(C)O4)OC1CO2` (stereo not drawn) [beta-TOXICAROL] has a residual activity [1] of 70.52% and a residual activity [4] of 67.84%.

`N=C(N)NCCC[C@@H](NC(=O)[C@@H](N)Cc1ccc(O)cc1)C(=O)O` [d[-Arg-2]KYOTORPHAN ACETATE] gave a residual activity [1] of 98.23% and a residual activity [4] of 114.8%.

`Cc1ccc(O)cc1` [p-CRESOL] showed a residual activity [1] of 101.1% and a residual activity [4] of 115%.

In the case of `O=C/C=C/c1ccc(O)cc1` [p-HYDROXYCINNAMALDEHYDE], the residual activity [1] is reported as 70.79% and the residual activity [4] is reported as 139.6%.

In the case of `NC/C=C/C(=O)O` [t-4-AMINOCROTONIC ACID (TACA)], the residual activity [1] is reported as 94.21% and the residual activity [4] is reported as 119.6%.
